The text below walks through data of US20170304288A1, “Formulations of Methionine Aminopeptidase Inhibitors for Treating Infectious Diseases” (Texas Southern University, priority 2013, published 2017).

The test system of the experiment is M. tuberculosis HN 3409. The class given is cell-based, Mycobacterium tuberculosis. The following applies: preliminary results, 29 days.
`Oc1c(Br)cc(Cl)c2cccnc12` [drawing 31]: the “Multi-Drug Resistant Tuberculosis Strain HN3409” value was below 5.0 µg/mL.
As for `O=C(N/N=C/c1c(O)ccc2ccccc12)c1ccncc1` [drawing 27], the figure is above 25.0 µg/mL.
For the compound `Oc1c(Cl)cc(Cl)c2cccnc12`, the “Multi-Drug Resistant Tuberculosis Strain HN3409” value was below 1.0 µg/mL.
In the case of `O=C1C(Cl)=C(Cl)C(=O)c2ccccc21` it was below 10.0 µg/mL; in that of `Oc1c(I)cc(Cl)c2cccnc12` [drawing 32], below 10.0 µg/mL.
In the case of `O=C1C(Br)=C(Br)C(=O)c2ccccc21` it was below 25.0 µg/mL.
In the case of `Cc1nc(-c2ccccn2)nc(N(C)Cc2ccccc2)c1Cl` [drawing 29] it was below 1.0 µg/mL.
As to `Oc1ccccc1/C=N/Nc1ncnc2sc3c(c12)CCCC3` [drawing 28], the “Multi-Drug Resistant Tuberculosis Strain HN3409” value was above 25.0 µg/mL.
